One block for each compound: values may come before it.
Tests used:
[1] = system: Protein Kinase A; test: SCT-stimulated respiration in primary brown adipocytes after pretreatment with the PKA inhibitor H89; type: cell-based, Mus musculus; settings: H89 50 μM pretreatment (FIG. 10F)
Method: F: Thermogenic effect of SCT depends on Protein Kinase A activity. Fold increase of basal leak respiration after stimulation with ISO, SCT and vehicle (assay medium) w/o proteinkinase A inhibitor H89 (50 μM). Inhibitor was injected together with olgio prior to addition of stimulators.
(§1) Method: To test whether SCT can activate thermogenesis in brown adipocytes, we measured UCP1-mediated uncoupled respiration in cultured adherent intact primary brown adipocytes, according to a protocol recently established in our lab (Li Y, Fromme T, Schweizer S, Schöttl T, Klingenspor M. EMBO Rep. 2014 October; 15(10):1069-76. doi: 10.15252/embr.201438775; Li Y, Fromme T, Klingenspor M. Meaningful respirometric measurements of UCP1-mediated thermogenesis. Biochimie. 2017 March; 134:56-61. doi: 10.1016/j.biochi.2016.12.005.). The cellular oxygen consumption rate (OCR) of primary adipocytes was determined using an XF96 Extracellular Flux Analyzer (Seahorse Bioscience). […]
All respiration assays were performed in the presence of bovine serum albumin to buffer free fatty acid levels in the respiration medium. Basal respiration was measured in untreated cells. […] UCP1 mediated uncoupled respiration was determined after isoproterenol or secretin stimulation. Maximum respiratory capacity was assessed after FCCP (Sigma-Aldrich) addition (1 μM). […]

[2] = system: primary brown adipocytes from UCP1 knockout mice; test: Microplate respirometry (oxygen consumption rate) in primary brown adipocytes from UCP1 knockout mice; type: cell-based, Mus musculus
Method: For culturing primary adipocytes male 129S1/SvImJ mice ([…] or UCP1-KO mice and wildtype littermates) at the age of 5-6 weeks were used for the dissection of inguinal and epidydimal white adipose tissue and interscapular brown adipose tissue depots. The tissue was carefully minced and treated with collagenase for 45 min at 37° C. The homogenate was filtered through a 250 μm nylon mesh and centrifuged at 500 g to collect the stromal vascular fraction (SVF). The SVF cell pellet was rinsed and seeded into XF96 V3-PS cell culture microplate (Seahorse Bioscience). After reaching confluency, induction medium containing 10% fetal bovine serum (FBS), 0.5 mM isobutylmethylxanthine, 125 nM indomethacin, 1 mM dexamethasone, 850 nM insulin and 1 nM T3 was added. After 2 days of induction, cells were maintained in differentiation media (10% FBS, 850 nM insulin and 1 nM T3). Medium was changed every two days. Respiration was measured on day 7 of differentiation. For determination of mRNA levels cells were stimulated at the 7th day of differentiation for 6 hours with secretin (rat, Tocris, Art Nr 1919) or isoproterenol (Sigma-Aldrich, Art Nr. 16504-100MG) and harvested subsequently. Oxygen consumption rate (OCR) was measured at 37° C. using a microplate respirometer (XF96 extracellular flux analyzer, Seahorse Bioscience). At day 7, the differentiation medium was replaced with prewarmed, unbuffered assay medium (DMEM basal medium supplemented with 25 mM glucose, 2 mM sodium pyruvate, 31 mM NaCl, 2 mM GlutaMax and 15 mg/l phenol red, pH 7.4) containing 2% of essentially fatty acid free bovine serum albumin (BSA), and incubated at 37° C. in a room air incubator for 1 h. Basal respiration was measured in untreated cells. […] Maximum respiratory capacity was assessed after FCCP (Sigma-Aldrich) addition (1 μM). […] Oxygen consumption rates were calculated using the Seahorse XF-96 software. […] For induction of OCR by isoproterenol, secretin or FCCP the highest values measured after addition of the respective molecule was used. The “OCR in % of basal OCR” and “OCR in % of FCCP OCR” were calculated as follows: Method: To test whether SCT can activate thermogenesis in brown adipocytes, we measured UCP1-mediated uncoupled respiration in cultured adherent intact primary brown adipocytes, according to a protocol recently established in our lab (Li Y, Fromme T, Schweizer S, Schöttl T, Klingenspor M. EMBO Rep. 2014 October; 15(10):1069-76. doi: 10.15252/embr.201438775; […]. Meaningful respirometric measurements of UCP1-mediated thermogenesis. Biochimie. 2017 March; 134:56-61. doi: 10.1016/j.biochi.2016.12.005.). The cellular oxygen consumption rate (OCR) of primary adipocytes was determined using an XF96 Extracellular Flux Analyzer (Seahorse Bioscience). […]

[3] = system: UCP1 expression; test: UCP1 mRNA expression (qRT-PCR) in primary adipocytes from interscapular brown adipose tissue; type: cell-based, Mus musculus; settings: 0.1 μM secretin or 0.5 μM isoproterenol, 6 hours, normalized to TFIIB (FIG. 4B)
Method: (§2) For culturing primary adipocytes male 129S1/SvImJ mice ([…] or UCP1-KO mice and wildtype littermates) at the age of 5-6 weeks were used for the dissection of inguinal and epidydimal white adipose tissue and interscapular brown adipose tissue depots. The tissue was carefully minced and treated with collagenase for 45 min at 37° C. The homogenate was filtered through a 250 μm nylon mesh and centrifuged at 500 g to collect the stromal vascular fraction (SVF). The SVF cell pellet was rinsed and seeded into XF96 V3-PS cell culture microplate (Seahorse Bioscience). After reaching confluency, induction medium containing 10% fetal bovine serum (FBS), 0.5 mM isobutylmethylxanthine, 125 nM indomethacin, 1 mM dexamethasone, 850 nM insulin and 1 nM T3 was added. […] Respiration was measured on day 7 of differentiation. […] RNA was eluted in 50 μl nuclease-free water and RNA concentration was determined spectrophotometrically (Infinite 200 PRO NanoQuant, Tecan, Männedorf/Switzerland). Reverse transcription into cDNA was performed with 500 ng RNA in a final volume of 10 μl (Quantitect Reverse Transcription Kit, Quiagen, Hilden/Germany). qRT-PCR was conducted on 384 well plates in a total volume of 12.5 μl comprising 6.25 μl SensiMix SYBR No-ROX (Bioline, London/UK), 250 nM forward and reverse primers, and 1 μl template cDNA (LightCycler 480 System, Roche Diagnostics, Rotkreuz/Switzerland). […]

[4] = system: UCP1 expression; test: UCP1 mRNA expression (qRT-PCR) in primary adipocytes from inguinal white adipose tissue; type: cell-based, Mus musculus; settings: 0.1 μM secretin or 0.5 μM isoproterenol, 6 hours, normalized to TFIIB (FIG. 4A)
Method: as §2

[5] = system: primary brown adipocytes; test: Microplate respirometry (oxygen consumption rate) in differentiated primary brown adipocytes of wildtype mice; type: cell-based, Mus musculus
Method: For culturing primary adipocytes male 129S1/SvImJ mice ([…] or UCP1-KO mice and wildtype littermates) at the age of 5-6 weeks were used for the dissection of inguinal and epidydimal white adipose tissue and interscapular brown adipose tissue depots. The tissue was carefully minced and treated with collagenase for 45 min at 37° C. The homogenate was filtered through a 250 μm nylon mesh and centrifuged at 500 g to collect the stromal vascular fraction (SVF). The SVF cell pellet was rinsed and seeded into XF96 V3-PS cell culture microplate (Seahorse Bioscience). After reaching confluency, induction medium containing 10% fetal bovine serum (FBS), 0.5 mM isobutylmethylxanthine, 125 nM indomethacin, 1 mM dexamethasone, 850 nM insulin and 1 nM T3 was added. After 2 days of induction, cells were maintained in differentiation media (10% FBS, 850 nM insulin and 1 nM T3). Medium was changed every two days. Respiration was measured on day 7 of differentiation. For determination of mRNA levels cells were stimulated at the 7th day of differentiation for 6 hours with secretin (rat, Tocris, Art Nr 1919) or isoproterenol (Sigma-Aldrich, Art Nr. 16504-100MG) and harvested subsequently. Oxygen consumption rate (OCR) was measured at 37° C. using a microplate respirometer (XF96 extracellular flux analyzer, Seahorse Bioscience). At day 7, the differentiation medium was replaced with prewarmed, unbuffered assay medium (DMEM basal medium supplemented with 25 mM glucose, 2 mM sodium pyruvate, 31 mM NaCl, 2 mM GlutaMax and 15 mg/l phenol red, pH 7.4) containing 2% of essentially fatty acid free bovine serum albumin (BSA), and incubated at 37° C. in a room air incubator for 1 h. Basal respiration was measured in untreated cells. Coupled respiration was inhibited by oligomycin treatment (5 μM). […] Maximum respiratory capacity was assessed after FCCP (Sigma-Aldrich) addition (1 μM). Finally, mitochondrial respiration was blocked by antimycin A (Sigma-Aldrich) (5 μM) treatment and the residual OCR was considered to be due to non-mitochondrial reactions. Oxygen consumption rates were calculated using the Seahorse XF-96 software. Data were exported and reconstructed in GraphPad Prism 4.0 software. For each condition the lowest OCR after antimycin A addition was subtracted from all other values. Respiration rates following oligomycin addition were defined as basal OCR. For induction of OCR by isoproterenol, secretin or FCCP the highest values measured after addition of the respective molecule was used. The “OCR in % of basal OCR” and “OCR in % of FCCP OCR” were calculated as follows: Method: To test whether SCT can activate thermogenesis in brown adipocytes, we measured UCP1-mediated uncoupled respiration in cultured adherent intact primary brown adipocytes, according to a protocol recently established in our lab (Li Y, Fromme T, Schweizer S, Schöttl T, Klingenspor M. EMBO Rep. 2014 October; 15(10):1069-76. doi: 10.15252/embr.201438775; […]. Meaningful respirometric measurements of UCP1-mediated thermogenesis. Biochimie. 2017 March; 134:56-61. doi: 10.1016/j.biochi.2016.12.005.). The cellular oxygen consumption rate (OCR) of primary adipocytes was determined using an XF96 Extracellular Flux Analyzer (Seahorse Bioscience). Briefly, primary adipocytes were cultured and differentiated in XF96 microplates. At day 7 of differentiation, cells were washed once with prewarmed, unbuffered assay medium (DMEM basal medium supplemented with 25 mM glucose, 31 mM NaCl, 2 mM GlutaMax and 15 mg/l phenol red, pH 7.4) (basal assay medium) and then the medium was replaced with basal assay medium containing 1-2% essentially fatty acid free bovine serum albumin (BSA), and incubated at 37° C. in a room air incubator for 1 h. The drug injections ports of the sensor cartridges were loaded with the assay reagents at 10× in basal assay medium (no BSA). All respiration assays were performed in the presence of bovine serum albumin to buffer free fatty acid levels in the respiration medium. […]

[6] = system: adrenergic β-receptors; test: SCT- and ISO-stimulated respiration in primary brown adipocytes after propranolol pretreatment; type: cell-based, Mus musculus
Method: SCT- and ISO-stimulated respiration after 1 h pretreatment with different concentrations propranolol, a non-selective blocker of adrenergic β-receptors.
as §1, with “Bioscience). Briefly, primary adipocytes were cultured and differentiated in XF96 microplates.” for “Bioscience).”
All respiration assays were performed in the presence of bovine serum albumin to buffer free fatty acid levels in the respiration medium. Basal respiration was measured in untreated cells. […] UCP1 mediated uncoupled respiration was determined after isoproterenol or secretin stimulation. Maximum respiratory capacity was assessed after FCCP (Sigma-Aldrich) addition (1 μM). […] Oxygen consumption rates were automatically calculated by the Seahorse XF-96 software. […]

[7] = target: secretin receptor (mouse, on primary brown adipocytes) (mouse) (UniProt Q5FWI2); test: cell-based or functional assay
Sequence of UniProt Q5FWI2 (Q5FWI2 29-447): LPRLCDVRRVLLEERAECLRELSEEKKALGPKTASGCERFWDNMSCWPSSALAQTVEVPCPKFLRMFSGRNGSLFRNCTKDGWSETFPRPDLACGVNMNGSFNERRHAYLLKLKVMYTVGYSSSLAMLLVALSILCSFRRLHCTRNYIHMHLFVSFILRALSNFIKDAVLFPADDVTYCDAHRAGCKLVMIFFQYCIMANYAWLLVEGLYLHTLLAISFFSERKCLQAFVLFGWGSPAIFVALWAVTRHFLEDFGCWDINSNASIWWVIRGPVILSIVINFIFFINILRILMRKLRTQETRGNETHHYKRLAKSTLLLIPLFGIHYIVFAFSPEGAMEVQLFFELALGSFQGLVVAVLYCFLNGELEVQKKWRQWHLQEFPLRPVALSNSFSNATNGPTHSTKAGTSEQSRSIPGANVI

Compound: O=S(=O)(NCCNCC=Cc1ccc(Br)cc1)c1cccc2cnccc12 [H89, N-[2-[[3-(4-Bromophenyl)-2-propenyl]amino]ethyl]-5-isoquinolinesulfonamide]
effect on the thermogenic effect of SCT [1]: completely blocked the thermogenic effect of SCT

Compound: CC(C)NCC(O)c1ccc(O)c(O)c1 (stereo not shown) [isoproterenol, reference compound]
induction of respiration in cells from UCP1 knockout mice ([2]; 129/S1 background, FIG. 3): lacking | response of respiration in UCP1 knockout brown adipocytes ([2]; SCT 10 nM, ISO 500 nM (FIG. 10B)): did not respond | UCP1 mRNA expression in brown adipocytes versus PBS [3]: induced UCP1 expression to a similar level as secretin | UCP1 mRNA expression in white adipocytes versus PBS [4]: induction of UCP1 expression | increase of OCR above basal OCR ([5]; 0.5 μM, after oligomycin, day 7 of differentiation (FIG. 2B)): about 200% | uncoupled OCR as share of maximal uncoupled OCR induced by FCCP ([5]; 0.5 μM, day 7 of differentiation (FIG. 2C)): about 75% | induction of oxygen consumption in cells from wildtype control mice ([5]; 129/S1 background, FIG. 3): increase in oxygen consumption | stimulation of UCP1-mediated thermogenesis (uncoupled respiration) ([5]; SCT 10 nM, ISO 500 nM, N=5 (FIG. 10A)): activate UCP1-dependent thermogenesis

effect on ISO stimulated respiration ([6]; 1 h pretreatment with propranolol, dose dependent (FIG. 10D)): blocking the effect of ISO
Compound: CC(C)NCC(O)COc1cccc2ccccc12 (stereo not shown) [propranolol]
effect on SCT stimulated respiration ([6]; 1 h pretreatment with propranolol (1 μM; different concentrations in FIG. 10D)): did not attenuate SCT stimulated respiration

oxygen consumption rate (OCR) in primary brown adipocytes, increase above basal OCR, 0.5 µM secretin (% above basal OCR) [7]: 200 | uncoupled OCR in primary brown adipocytes as a share of maximal uncoupled OCR induced by FCCP, 0.5 µM secretin (% of maximal uncoupled OCR) [7]: 75
Compound: secretin (rat, Tocris, Art Nr 1919) (from UniProt P11384 33-59) (peptide)
